Read-outs that look alike come from different tables or passages of the source.
Test system: SARS-CoV-2
Test: Plaque assay, anti-SARS-CoV-2 activity in Vero E6 cells
Type: cell-based, SARS-CoV-2 (hCoV-19/Taiwan/NTU13/2020)
Settings: for average percentage of suppression of SARS-CoV-2 replication / plaque reduction compared to the negative control groups (FIG. 13): Vero E6 cells; for average percentage of suppression of SARS-CoV-2 replication: 5 days of incubation; for EC50: Severe acute respiratory syndrome coronavirus 2, Vero C1008, read-out: EC50 (minimal concentration required to reduce 50% of plaque count); for plaque reduction compared to the negative control groups (FIG. 13): at least 10 μM

Row | Compound | average percentage of suppression of SARS-CoV-2 replication (10 μM) [%] | EC50 (SARS-CoV-2 infected Vero E6 cells, regression analysis of dose-response curves) [µM] | plaque reduction compared to the negative control groups (FIG. 13) | average percentage of suppression of SARS-CoV-2 replication (40 μM) [%] | EC50 [µM]
1 | CCCCCN=C(N)N/N=C/c1c[nH]c2ccc(OC)cc12 [Tegaserod, 1-[(E)-(5-methoxy-1H-indol-3-yl)methylideneamino]-2-pentylguanidine] | 54.3 | < 10 | effective in suppression SARS-CoV-2 replication | – | –
2 | CC(Cc1ccc(O)cc1)NCC(O)c1cc(O)cc(O)c1 (stereo not shown) [Fenoterol, 5-[1-hydroxy-2-[1-(4-hydroxyphenyl)propan-2-ylamino]ethyl]benzene-1,3-diol] | 17.0 | – | effective in suppressing SARS-CoV-2 replication | 68.9 | 30

Source: patent US20230184749A1, “DRUG RANKING METHOD AND SYSTEM, COMPARISON METHOD FOR DRUG RANKING METHOD AND NEW USE OF DRUG SELECTED USING THE SAME” (National Tsing Hua University, priority 2021, published 2023)
